Laboratory results taken from ChEMBL document CHEMBL3232946, “Development of 3,5-dinitrobenzoate-based 5-lipoxygenase inhibitors” (Bioorg Med Chem, 2014).

Assays:
[1] = target: T1, Polyunsaturated fatty acid 5-lipoxygenase (Homo sapiens, UniProt P09917); experiment: Inhibition of human 5-LOX using arachidonic acid as substrate preincubated for 10 mins followed by substrate addition by H2DCFDA staining-based fluorometric analysis
T1 sequence (P09917 whole entry): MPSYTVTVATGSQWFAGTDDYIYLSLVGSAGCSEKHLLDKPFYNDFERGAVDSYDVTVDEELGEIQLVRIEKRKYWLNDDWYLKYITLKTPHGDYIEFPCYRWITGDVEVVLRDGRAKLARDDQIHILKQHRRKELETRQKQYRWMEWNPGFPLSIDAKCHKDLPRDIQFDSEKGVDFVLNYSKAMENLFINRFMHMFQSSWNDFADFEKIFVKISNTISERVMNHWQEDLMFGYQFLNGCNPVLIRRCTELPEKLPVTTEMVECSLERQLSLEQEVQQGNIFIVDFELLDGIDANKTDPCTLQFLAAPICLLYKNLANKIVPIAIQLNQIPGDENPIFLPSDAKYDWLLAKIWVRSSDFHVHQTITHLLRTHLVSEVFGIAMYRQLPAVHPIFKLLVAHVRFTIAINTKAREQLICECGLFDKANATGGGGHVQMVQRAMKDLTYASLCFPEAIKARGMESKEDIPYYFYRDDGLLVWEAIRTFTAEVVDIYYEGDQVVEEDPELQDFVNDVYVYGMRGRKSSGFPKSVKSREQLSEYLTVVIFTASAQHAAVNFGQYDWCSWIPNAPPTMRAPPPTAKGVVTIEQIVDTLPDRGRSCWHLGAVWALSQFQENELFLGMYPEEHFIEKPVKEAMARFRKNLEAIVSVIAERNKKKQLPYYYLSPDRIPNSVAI

[2] = target: T1, Polyunsaturated fatty acid 5-lipoxygenase; experiment: Inhibition of 5-LOX in human whole blood assessed as inhibition of A23187-induced LTB4 production preincubated for 15 mins followed by A23187 induction measured after 30 mins by ELISA

Row | SMILES | IC50 [1] [µM] | IC50 [2] [µM]
1 | O=C(Nc1ccccc1)c1cc([N+](=O)[O-])cc([N+](=O)[O-])c1 | 1.8 | 15.2
2 | O=C(O)c1cccc(C(=O)Nc2cccc3ccccc23)c1 | > 50 | > 50
3 | O=C(O)c1cccc(C(=O)OCc2ccccc2)c1 | > 50 | > 50
4 | O=C(Oc1cccc(Cl)c1Cl)c1cc([N+](=O)[O-])cc([N+](=O)[O-])c1 | > 50 | > 50
5 | O=C(O)c1cccc(C(=O)Nc2ccccc2)c1 | > 50 | > 50
6 | O=C(Oc1ccc(-c2ccccc2)cc1)c1cc([N+](=O)[O-])cc([N+](=O)[O-])c1 | > 50 | > 50
7 | O=C(O)c1cccc(C(=O)Oc2cccc3ccccc23)c1 | > 50 | > 50
8 | O=C(Nc1cccc(Br)c1)c1cc([N+](=O)[O-])cc([N+](=O)[O-])c1 | > 50 | > 50

The next lines start with the values.

Row | IC50 [1] [µM] | IC50 [2] [µM] | SMILES
9 | 1 |  | O=C(Oc1cccc2ccccc12)c1cc([N+](=O)[O-])cc([N+](=O)[O-])c1
10 | 0.006 | 0.5 | Cc1cccc(OC(=O)c2cc([N+](=O)[O-])cc([N+](=O)[O-])c2)c1
11 | 0.033 | > 50 | O=C(Nc1cccc(Cl)c1)c1cc([N+](=O)[O-])cc([N+](=O)[O-])c1
12 | 0.004 | > 50 | O=C(Nc1cccc2ccccc12)c1cc([N+](=O)[O-])cc([N+](=O)[O-])c1
13 | 0.01 | > 50 | Cc1cccc(NC(=O)c2cc([N+](=O)[O-])cc([N+](=O)[O-])c2)c1
14 | 7.1 | 24.6 | O=C(Oc1cccc2ccccc12)c1cccc([N+](=O)[O-])c1
15 | 7.4 | 6.5 | CCCc1cccc(OC(=O)c2cc([N+](=O)[O-])cc([N+](=O)[O-])c2)c1
16 | 0.03 | > 50 | O=C(Nc1cccc(-c2ccccc2)c1)c1cc([N+](=O)[O-])cc([N+](=O)[O-])c1
17 | 1.1 | > 50 | COc1ccc(NC(=O)c2cc([N+](=O)[O-])cc([N+](=O)[O-])c2)cc1OC
18 | 1.6 | 15.8 | O=C(Oc1ccccc1)c1cc([N+](=O)[O-])cc([N+](=O)[O-])c1
19 | 83.6 | 14.4 | O=C(NCc1cccc(Br)c1)c1cc([N+](=O)[O-])cc([N+](=O)[O-])c1
20 | 0.034 | 2.7 | COc1ccc(NC(=O)c2cc([N+](=O)[O-])cc([N+](=O)[O-])c2)cc1
21 | 8.7 | 38 | O=C(Oc1cccc(-c2ccccc2)c1)c1cc([N+](=O)[O-])cc([N+](=O)[O-])c1
